What was measured:
lambsquarters [1] = assay: Test C preemergence; format: in vivo, Chenopodium album; conditions: for Lambsquarters plant response rating / Plant response rating, Lambsquarters: preemergence; for Plant response rating, Lambsquarters: scale 0 to 100, 0 = no effect, 100 = complete control; for Plant response rating (scale of 0 to 100), Lambsquarters: Preemergence
Procedure, shortened: (§1)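 In this greenhouse assay, seeded soil (loam plus sand) or emerged seedlings in peat-vermiculite medium were treated with formulated compound. Roughly two weeks later (13–15 days), each species was scored visually relative to controls, from 0 for no effect to 100 for complete control.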

barnyardgrass = assay: Test B flood; format: in vivo, Echinochloa crus-galli; conditions: 250 g ai/ha, visual rating on 0 to 100 scale (0 no effect, 100 complete control), 13 to 15 days
Procedure, shortened: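 Two-leaf-stage plants, pots flooded (3 cm above soil) and treated through the water, which stayed at that depth. After 13–15 days in greenhouse conditions, visual assessment versus controls: 0 is no effect, 100 complete control, dash means no result.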

crabgrass, large = assay: Test A postemergence; format: in vivo, Digitaria sanguinalis
Procedure, shortened: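 Injury readout: eye-scored versus untreated controls, 0 to 100. Exposure period: ~10 days, greenhouse. Application: soil-directed spray over sown seed (pre) or spray on seedlings 2–10 cm tall with one or two leaves (post), compound carried in non-phytotoxic solvent including surfactant.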

wheat [2] = assay: Test C preemergence; format: in vivo, Triticum aestivum; conditions: for Wheat plant response rating / Plant response rating, Wheat: preemergence; for Plant response rating, Wheat: scale 0 to 100, 0 = no effect, 100 = complete control; for Plant response rating (scale of 0 to 100), Wheat: Preemergence
Source text: (§2) Seeds of plant species selected from blackgrass (Alopecurus myosuroides), ryegrass, Italian (Italian ryegrass, Lolium multiflorum), wheat (winter wheat, Triticum aestivum), galium (catchweed bedstraw, Galium aparine), corn (Zea mays), crabgrass, large (large crabgrass, Digitaria sanguinalis), foxtail, giant (giant foxtail, Setaria faberii), johnsongrass (Sorghum halepense), lambsquarters (Chenopodium album), morningglory (Ipomoea coccinea), nutsedge, yellow (yellow nutsedge, Cyperus esculentus), pigweed (redroot pigweed, Amaranthus retroflexus), ragweed (common ragweed, Ambrosia elation), soybean (Glycine max), barnyardgrass (Echinochloa crus-galli), oilseed rape (Brassica napus), waterhemp (common waterhemp, Amaranthus rudis), oat, wild (wild oat, Avena fatua), kochia (Kochia scoparia), Surinam grass (Brachiaria decumbens), foxtail, green (green foxtail, Setaria viridis), goosegrass (Eleusine indica), bromegrass, downy (downy bromegrass, Bromus tectorum), nightshade (eastern black nightshade, Solanum ptycanthum), cocklebur (common cocklebur, Xanthium strumarium), cupgrass, woolly (woolly cupgrass, Eriochloa villosa), bermudagrass (Cynodon dactylon), sunflower, (common oilseed sunflower, Helianthus annuus), Russian thistle (Salsola kali), and velvetleaf (Abutilon theophrasti) were planted into a blend of loam soil and sand and treated preemergence with test chemicals formulated in a non-phytotoxic solvent mixture which included a surfactant.
(§3) At the same time, plants selected from these crop and weed species and also chickweed (common chickweed, Stellaria media), canarygrass (littleseed canarygrass, Phalaris minor), and deadnettle (henbit deadnettle, Lamium amplexicaule), were planted in pots containing Redi-Earth® planting medium (Scotts Company, 14111 Scottslawn Road, Marysville, Ohio 43041) comprising spaghnum peat moss, vermiculite, wetting agent and starter nutrients and treated with postemergence applications of test chemicals formulated in the same manner. Plants ranged in height from 2 to 18 cm (1- to 4-leaf stage) for postemergence treatments. Treated plants and controls were maintained in a greenhouse for 13 to 15 days, after which time all species were compared to controls and visually evaluated. Plant response ratings, summarized in Table C, are based on a scale of 0 to 100 where 0 is no effect and 100 is complete control. A dash (-) response means no test result.

velvetleaf = assay: Test C preemergence; format: in vivo, Abutilon theophrasti; conditions: for Velvetleaf plant response rating / Plant response rating, Velvetleaf: preemergence; for Plant response rating, Velvetleaf: scale 0 to 100, 0 = no effect, 100 = complete control; for Plant response rating (scale of 0 to 100), Velvetleaf: Preemergence
Source text: as §2, §3

corn = assay: Test C postemergence; format: in vivo, Zea mays; conditions: for Corn plant response rating: scale 0 to 100
Procedure, shortened: as §1

wheat [3] = assay: Test C postemergence; format: in vivo, Triticum aestivum; conditions: postemergence; for Wheat plant response rating: 62 g ai/ha, scale 0 to 100
Procedure, shortened: as §1

lambsquarters [4] = assay: Test C postemergence; format: in vivo, Chenopodium album; conditions: for Lambsquarters plant response rating: scale 0 to 100
Procedure, shortened: as §1

kochia = assay: Test C postemergence; format: in vivo, Kochia scoparia; conditions: for Kochia plant response rating: scale 0 to 100
Procedure, shortened: as §1

morningglory = assay: Test C postemergence; format: in vivo, Ipomoea coccinea; conditions: for Morningglory plant response rating: scale 0 to 100
Source text: as §2, §3

chickweed = assay: Test C postemergence; format: in vivo, Stellaria media; conditions: for Chickweed plant response rating: scale 0 to 100
Procedure, shortened: as §1

foxtail, giant = assay: Test C postemergence; format: in vivo, Setaria faberii; conditions: for Foxtail, Giant plant response rating: scale 0 to 100
Procedure, shortened: as §1

[5] = 31 g ai/ha, visual rating, scale 0 to 100 (0 no effect, 100 complete control), 13 to 15 days
[6] = 62 g ai/ha, scale 0 to 100 (0 no effect, 100 complete control), 13 to 15 days
[7] = 250 g ai/ha, scale 0 to 100, 0 is no effect, 100 is complete control
[8] = Postemergence, 500 g ai/ha, 0 to 100 scale (0 no effect, 100 complete control)
[9] = postemergence, 125 g ai/ha, about 10 days, visual rating on 0 to 100 scale (0 no effect, 100 complete control)
[10] = postemergence, 250 g ai/ha, scale 0 to 100 (0 no effect, 100 complete control)
[11] = postemergence, 125 g ai/ha, scale 0 to 100, 0 no effect, 100 complete control
[12] = 250 g ai/ha, scale 0 to 100 (0 no effect, 100 complete control)
[13] = 125 g ai/ha, scale 0 to 100, 0 no effect, 100 complete control
[14] = 31 g ai/ha, scale 0 to 100 (0 no effect, 100 complete control), 13 to 15 days
[15] = 125 g ai/ha, scale 0 to 100, 0 is no effect, 100 is complete control
[16] = postemergence, 62 g ai/ha, scale 0 to 100, 0 no effect, 100 complete control

O=C(NC1CC1)c1cc(CCF)n(Cc2ccnc(C(F)(F)F)c2)n1 [Compound 176]
Lambsquarters plant response rating (lambsquarters [1]; [5]): 80
Lambsquarters plant response rating (lambsquarters [1]; [6]): 98
Plant response rating, Lambsquarters (lambsquarters [1]; 125 g ai/ha, 13 to 15 days): 100
Lambsquarters plant response rating (lambsquarters [1]; [7]): 100
Plant response rating, Barnyardgrass (barnyardgrass): 35
Crabgrass, Large plant response rating (crabgrass, large; [8]): 90
Crabgrass, Large plant response rating (crabgrass, large; [9]): 80
Wheat plant response rating (wheat [2]; [5]): 0
Wheat plant response rating (wheat [2]; [6]): 0
Plant response rating, Wheat (wheat [2]; 125 g ai/ha, 13 to 15 days): 5
Wheat plant response rating (wheat [2]; [7]): 85
Velvetleaf plant response rating (velvetleaf; [5]): 30
Velvetleaf plant response rating (velvetleaf; [6]): 75
Plant response rating, Velvetleaf (velvetleaf; 125 g ai/ha, 13 to 15 days): 90
Velvetleaf plant response rating (velvetleaf; [7]): 100

Cc1cc(C(=O)NCC(F)(F)F)nn1Cc1ccnc(C(F)(F)F)c1 [Compound 74]
Corn plant response rating (corn; Postemergence, 31 g ai/ha): 10
Corn plant response rating (corn; postemergence, 62 g ai/ha): 10
Plant response rating, Corn (corn; [10]): 55
Plant response rating, Corn (corn; [11]): 20
Wheat plant response rating (wheat [3]): 0
Plant response rating, Wheat (wheat [3]; [12]): 5
Plant response rating, Wheat (wheat [3]; [13]): 0
Lambsquarters plant response rating (lambsquarters [4]; Postemergence, 31 g ai/ha): 20
Lambsquarters plant response rating (lambsquarters [4]; postemergence, 62 g ai/ha): 35
Plant response rating, Lambsquarters (lambsquarters [4]; [10]): 90
Plant response rating, Lambsquarters (lambsquarters [4]; [11]): 80
Plant response rating (scale of 0 to 100), Lambsquarters (lambsquarters [1]; 250 g ai/ha): 95
Lambsquarters plant response rating (lambsquarters [1]; [14]): 85
Plant response rating, Lambsquarters (lambsquarters [1]; 62 g ai/ha, 13 to 15 days): 90
Lambsquarters plant response rating (lambsquarters [1]; [15]): 90
Crabgrass, Large plant response rating (crabgrass, large; Postemergence, 1000 g ai/ha, visual rating after approx. 10 days, 0 to 100 scale (0 no effect, 100 complete control)): 100
Plant response rating (scale of 0 to 100), Wheat (wheat [2]; 250 g ai/ha): 90
Wheat plant response rating (wheat [2]; [14]): 0
Plant response rating, Wheat (wheat [2]; 62 g ai/ha, 13 to 15 days): 5
Wheat plant response rating (wheat [2]; [15]): 15
Kochia plant response rating (kochia; Postemergence, 31 g ai/ha): 20
Kochia plant response rating (kochia; postemergence, 62 g ai/ha): 50
Plant response rating, Kochia (kochia; [10]): 90
Plant response rating, Kochia (kochia; [11]): 80
Morningglory plant response rating (morningglory; Postemergence, 31 g ai/ha): 70
Morningglory plant response rating (morningglory; postemergence, 62 g ai/ha): 75
Plant response rating, Morningglory (morningglory; [10]): 80
Plant response rating, Morningglory (morningglory; [11]): 75
Chickweed plant response rating (chickweed; Postemergence, 31 g ai/ha): 20
Chickweed plant response rating (chickweed; postemergence, 62 g ai/ha): 45
Plant response rating, Chickweed (chickweed; [10]): 55
Plant response rating, Chickweed (chickweed; [11]): 45
Plant response rating (scale of 0 to 100), Velvetleaf (velvetleaf; 250 g ai/ha): 100
Velvetleaf plant response rating (velvetleaf; [14]): 45
Plant response rating, Velvetleaf (velvetleaf; 62 g ai/ha, 13 to 15 days): 65
Velvetleaf plant response rating (velvetleaf; [15]): 100
Foxtail, Giant plant response rating (foxtail, giant; Postemergence, 31 g ai/ha): 5
Foxtail, Giant plant response rating (foxtail, giant; postemergence, 62 g ai/ha): 10
Plant response rating, Foxtail, Giant (foxtail, giant; [10]): 25
Plant response rating, Foxtail, Giant (foxtail, giant; [11]): 10

O=C(NCC(F)(F)F)c1cc(CCF)n(Cc2ccnc(C(F)(F)F)c2)n1 [Compound 175]
Lambsquarters plant response rating (lambsquarters [1]; [5]): 98
Lambsquarters plant response rating (lambsquarters [1]; [6]): 100
Plant response rating, Lambsquarters (lambsquarters [1]; 125 g ai/ha, 13 to 15 days): 100
Lambsquarters plant response rating (lambsquarters [1]; [7]): 100
Plant response rating, Barnyardgrass (barnyardgrass): 35
Crabgrass, Large plant response rating (crabgrass, large; [8]): 90
Crabgrass, Large plant response rating (crabgrass, large; [9]): 90
Wheat plant response rating (wheat [2]; [5]): 0
Wheat plant response rating (wheat [2]; [6]): 50
Plant response rating, Wheat (wheat [2]; 125 g ai/ha, 13 to 15 days): 85
Wheat plant response rating (wheat [2]; [7]): 90
Velvetleaf plant response rating (velvetleaf; [5]): 55
Velvetleaf plant response rating (velvetleaf; [6]): 98
Plant response rating, Velvetleaf (velvetleaf; 125 g ai/ha, 13 to 15 days): 100
Velvetleaf plant response rating (velvetleaf; [7]): 100

CCc1cc(C(=O)NOC(C)C)nn1Cc1cccc(OC(F)(F)F)c1 [Compound 70]
Corn plant response rating (corn; Postemergence, 31 g ai/ha): 10
Plant response rating, Corn (corn; [10]): 50
Plant response rating, Corn (corn; [16]): 40
Plant response rating, Corn (corn; [11]): 45
Wheat plant response rating (wheat [3]): 15
Plant response rating, Wheat (wheat [3]; [12]): 25
Plant response rating, Wheat (wheat [3]; [13]): 20
Lambsquarters plant response rating (lambsquarters [4]; Postemergence, 31 g ai/ha): 75
Plant response rating, Lambsquarters (lambsquarters [4]; [10]): 98
Plant response rating, Lambsquarters (lambsquarters [4]; [16]): 95
Plant response rating, Lambsquarters (lambsquarters [4]; [11]): 95
Plant response rating (scale of 0 to 100), Lambsquarters (lambsquarters [1]; 250 g ai/ha): 100
Lambsquarters plant response rating (lambsquarters [1]; [14]): 98
Plant response rating, Lambsquarters (lambsquarters [1]; 62 g ai/ha, 13 to 15 days): 98
Lambsquarters plant response rating (lambsquarters [1]; [15]): 100
Crabgrass, Large plant response rating (crabgrass, large; Postemergence, 500 g ai/ha, visual rating after approx. 10 days, 0 to 100 scale (0 no effect, 100 complete control)): 90
Crabgrass, Large plant response rating (crabgrass, large; [9]): 90
Plant response rating (scale of 0 to 100), Wheat (wheat [2]; 250 g ai/ha): 75
Wheat plant response rating (wheat [2]; [14]): 5
Plant response rating, Wheat (wheat [2]; 62 g ai/ha, 13 to 15 days): 10
Wheat plant response rating (wheat [2]; [15]): 65
Kochia plant response rating (kochia; Postemergence, 31 g ai/ha): 50
Plant response rating, Kochia (kochia; [10]): 70
Plant response rating, Kochia (kochia; [16]): 55
Plant response rating, Kochia (kochia; [11]): 55
Morningglory plant response rating (morningglory; Postemergence, 31 g ai/ha): 5
Plant response rating, Morningglory (morningglory; [10]): 85
Plant response rating, Morningglory (morningglory; [16]): 45
Plant response rating, Morningglory (morningglory; [11]): 75
Chickweed plant response rating (chickweed; Postemergence, 31 g ai/ha): 45
Plant response rating, Chickweed (chickweed; [10]): 65
Plant response rating, Chickweed (chickweed; [16]): 45
Plant response rating, Chickweed (chickweed; [11]): 50
Plant response rating (scale of 0 to 100), Velvetleaf (velvetleaf; 250 g ai/ha): 100
Velvetleaf plant response rating (velvetleaf; [14]): 20
Plant response rating, Velvetleaf (velvetleaf; 62 g ai/ha, 13 to 15 days): 60
Velvetleaf plant response rating (velvetleaf; [15]): 75
Foxtail, Giant plant response rating (foxtail, giant; Postemergence, 31 g ai/ha): 5
Plant response rating, Foxtail, Giant (foxtail, giant; [10]): 25
Plant response rating, Foxtail, Giant (foxtail, giant; [16]): 10
Plant response rating, Foxtail, Giant (foxtail, giant; [11]): 15
